In data set [1] the test system is HCT116 (colorectal carcinoma). Description: MTT cytotoxicity assay, HCT-116. The settings on record: Homo sapiens, HCT-116, read-out: IC50 HCT-116. It counts as cell-based. For orientation: Tetrazolium assays rely on reduction of a dye to a coloured formazan, in cell work by metabolically active cells.
The subject of data set [2] is HeLa (cervical epithelioid carcinoma). Kind of data set: MTT cytotoxicity assay, HeLa. Type of data set: cell-based. The conditions noted are these: Homo sapiens, read-out: IC50 HeLa.
Another data set relates to MCF-7 (breast cancer). Description: MTT cytotoxicity assay, MCF-7. Type of data set: cell-based. The settings on record: Homo sapiens, MCF7, read-out: IC50 MCF-7.
The subject of data set [3] is WI-38 normal fibroblast cell line. Description: Cytotoxicity towards normal human cells. The settings on record: WI-38, read-out: IC50 WI-38. It counts as cell-based.
The next data set addresses EGFR (Homo sapiens, UniProt P00533). Description: EGFR enzyme inhibition assay. It counts as biochemical.
For a further data set, the target named is TOP-II (Homo sapiens, UniProt P11388). Kind of data set: TOP-II enzyme inhibition assay. Type of data set: biochemical.
A further data set addresses T1, aromatase (ARO) (Homo sapiens, UniProt P11511).
T1 sequence (P11511 1-503): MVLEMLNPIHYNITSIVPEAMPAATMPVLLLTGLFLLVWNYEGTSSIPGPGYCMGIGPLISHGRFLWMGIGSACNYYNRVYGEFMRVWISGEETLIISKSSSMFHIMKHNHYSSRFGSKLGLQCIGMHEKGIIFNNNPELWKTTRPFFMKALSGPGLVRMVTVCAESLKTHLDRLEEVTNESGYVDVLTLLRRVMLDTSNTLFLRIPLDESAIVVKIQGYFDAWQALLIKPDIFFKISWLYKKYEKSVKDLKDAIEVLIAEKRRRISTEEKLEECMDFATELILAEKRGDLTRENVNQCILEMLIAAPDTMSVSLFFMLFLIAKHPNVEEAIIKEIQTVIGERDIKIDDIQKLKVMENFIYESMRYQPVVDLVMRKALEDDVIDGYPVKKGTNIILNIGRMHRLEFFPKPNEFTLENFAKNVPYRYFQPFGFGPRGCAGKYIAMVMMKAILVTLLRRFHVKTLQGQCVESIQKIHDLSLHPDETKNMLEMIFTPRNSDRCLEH
Kind of data set: Aromatase enzyme inhibition assay. It counts as biochemical.

In another data set the target is HER-2 (Homo sapiens, UniProt P04626). Description: biochemical.
The test system of another data set is MCF-7 cells. Kind of data set: Flow cytometry cell cycle analysis. Type of data set: cell-based, human. In general terms: A flow cytometer gives signals particle by particle.
Data set [4] has as its system DMBA-induced breast cancer. Kind of data set: In vivo DMBA-induced breast cancer model. More on the design: species or system mice. The settings on record: day 20; for Final tumor volume: untreated DMBA group approximately 2.4 mm^3.
Data set [5] can be described thus: Body weight in DMBA-induced breast cancer model. The conditions noted are these: DMBA model mice; for Body weight at day 20: control 28.91 g, DMBA 35.2 g; for Body weight at start: start of 20 days period, control 20.51 g, DMBA 18.8 g. Type of data set: in vivo.
The next data set concerns caspase-3. Description: Caspase-3 immunostaining of mammary tissue in DMBA model. Type of data set: in vivo, mice. The conditions noted are these: for caspase-3 positive cells: immunostaining, mean ± standard error (n = 5), control 4.5 ± 0.2, DMBA 0.5 ± 0.1.

Bounds are passed on as bounds.

As usually defined, the IC50 is the concentration that inhibits the measured activity by half.

TOP-II, sequence (P11388 whole entry): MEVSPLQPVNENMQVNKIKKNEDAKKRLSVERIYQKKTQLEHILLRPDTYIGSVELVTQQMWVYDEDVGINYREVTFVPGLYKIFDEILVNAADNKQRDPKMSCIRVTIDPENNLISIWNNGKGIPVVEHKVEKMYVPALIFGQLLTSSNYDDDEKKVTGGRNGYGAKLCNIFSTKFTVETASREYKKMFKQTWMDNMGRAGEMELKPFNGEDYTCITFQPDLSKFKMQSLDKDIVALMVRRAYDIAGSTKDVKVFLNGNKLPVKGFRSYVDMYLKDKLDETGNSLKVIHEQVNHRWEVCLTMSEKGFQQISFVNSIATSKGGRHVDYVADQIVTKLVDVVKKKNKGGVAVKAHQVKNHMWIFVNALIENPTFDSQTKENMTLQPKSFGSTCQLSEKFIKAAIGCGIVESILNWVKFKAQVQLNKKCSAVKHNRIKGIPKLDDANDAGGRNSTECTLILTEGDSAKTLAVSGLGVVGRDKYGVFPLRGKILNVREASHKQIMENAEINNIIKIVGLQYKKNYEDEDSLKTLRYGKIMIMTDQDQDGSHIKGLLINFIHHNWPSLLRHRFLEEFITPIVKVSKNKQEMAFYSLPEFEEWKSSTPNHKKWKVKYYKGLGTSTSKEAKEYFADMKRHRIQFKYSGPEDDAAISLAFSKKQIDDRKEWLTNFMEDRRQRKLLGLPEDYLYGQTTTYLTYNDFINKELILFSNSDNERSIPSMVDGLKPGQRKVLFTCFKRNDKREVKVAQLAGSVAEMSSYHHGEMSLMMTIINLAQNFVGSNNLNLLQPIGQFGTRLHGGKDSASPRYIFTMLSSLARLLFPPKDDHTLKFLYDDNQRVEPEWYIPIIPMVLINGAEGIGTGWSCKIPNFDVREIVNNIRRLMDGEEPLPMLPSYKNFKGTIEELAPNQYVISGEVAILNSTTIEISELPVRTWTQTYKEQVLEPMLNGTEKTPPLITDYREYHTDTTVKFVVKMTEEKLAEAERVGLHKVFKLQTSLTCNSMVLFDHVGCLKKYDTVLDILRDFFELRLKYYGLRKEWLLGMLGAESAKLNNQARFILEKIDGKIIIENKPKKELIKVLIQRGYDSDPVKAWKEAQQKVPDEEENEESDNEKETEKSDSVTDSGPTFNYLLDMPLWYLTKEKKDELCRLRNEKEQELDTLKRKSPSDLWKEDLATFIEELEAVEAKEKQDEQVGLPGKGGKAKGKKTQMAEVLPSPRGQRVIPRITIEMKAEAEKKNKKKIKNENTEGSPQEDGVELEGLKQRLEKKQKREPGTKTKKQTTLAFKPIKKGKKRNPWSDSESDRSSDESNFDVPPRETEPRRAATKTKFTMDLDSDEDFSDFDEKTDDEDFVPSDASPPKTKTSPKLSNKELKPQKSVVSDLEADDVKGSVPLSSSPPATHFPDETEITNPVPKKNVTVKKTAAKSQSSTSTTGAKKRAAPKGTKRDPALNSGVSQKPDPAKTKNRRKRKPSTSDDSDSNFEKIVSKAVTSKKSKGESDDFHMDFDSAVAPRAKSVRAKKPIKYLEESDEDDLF
EGFR, sequence (P00533 25-1210): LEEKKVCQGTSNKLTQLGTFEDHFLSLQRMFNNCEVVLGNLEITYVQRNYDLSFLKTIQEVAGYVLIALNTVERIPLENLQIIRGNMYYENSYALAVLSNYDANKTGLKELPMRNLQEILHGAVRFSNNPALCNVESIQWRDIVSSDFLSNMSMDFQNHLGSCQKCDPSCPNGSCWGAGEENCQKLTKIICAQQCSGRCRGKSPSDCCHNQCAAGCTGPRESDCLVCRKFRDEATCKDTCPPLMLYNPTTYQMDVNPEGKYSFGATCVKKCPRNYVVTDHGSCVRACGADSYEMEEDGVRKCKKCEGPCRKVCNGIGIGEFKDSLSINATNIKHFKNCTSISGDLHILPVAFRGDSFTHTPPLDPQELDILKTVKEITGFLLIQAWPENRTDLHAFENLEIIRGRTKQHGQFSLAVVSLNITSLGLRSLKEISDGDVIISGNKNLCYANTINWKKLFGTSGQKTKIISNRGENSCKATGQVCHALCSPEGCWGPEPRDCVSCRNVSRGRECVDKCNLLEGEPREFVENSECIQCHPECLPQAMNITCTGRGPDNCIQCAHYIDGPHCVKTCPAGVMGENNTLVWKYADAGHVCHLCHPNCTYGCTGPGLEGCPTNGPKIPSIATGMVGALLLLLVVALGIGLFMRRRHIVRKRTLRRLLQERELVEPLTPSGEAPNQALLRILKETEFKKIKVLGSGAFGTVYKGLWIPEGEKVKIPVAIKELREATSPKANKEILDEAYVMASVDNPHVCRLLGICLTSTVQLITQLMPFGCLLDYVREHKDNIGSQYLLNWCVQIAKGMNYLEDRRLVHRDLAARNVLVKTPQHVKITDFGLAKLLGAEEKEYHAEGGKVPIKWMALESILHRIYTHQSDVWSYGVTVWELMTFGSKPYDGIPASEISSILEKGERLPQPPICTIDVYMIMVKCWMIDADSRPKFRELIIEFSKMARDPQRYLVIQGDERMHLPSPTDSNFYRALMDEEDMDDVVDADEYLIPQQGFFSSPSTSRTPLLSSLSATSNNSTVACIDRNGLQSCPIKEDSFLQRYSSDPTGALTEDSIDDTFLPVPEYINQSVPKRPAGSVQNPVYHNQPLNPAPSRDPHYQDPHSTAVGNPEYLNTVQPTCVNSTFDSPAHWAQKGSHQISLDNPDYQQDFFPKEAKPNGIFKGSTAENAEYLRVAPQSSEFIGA
HER-2, sequence (P04626 23-1255): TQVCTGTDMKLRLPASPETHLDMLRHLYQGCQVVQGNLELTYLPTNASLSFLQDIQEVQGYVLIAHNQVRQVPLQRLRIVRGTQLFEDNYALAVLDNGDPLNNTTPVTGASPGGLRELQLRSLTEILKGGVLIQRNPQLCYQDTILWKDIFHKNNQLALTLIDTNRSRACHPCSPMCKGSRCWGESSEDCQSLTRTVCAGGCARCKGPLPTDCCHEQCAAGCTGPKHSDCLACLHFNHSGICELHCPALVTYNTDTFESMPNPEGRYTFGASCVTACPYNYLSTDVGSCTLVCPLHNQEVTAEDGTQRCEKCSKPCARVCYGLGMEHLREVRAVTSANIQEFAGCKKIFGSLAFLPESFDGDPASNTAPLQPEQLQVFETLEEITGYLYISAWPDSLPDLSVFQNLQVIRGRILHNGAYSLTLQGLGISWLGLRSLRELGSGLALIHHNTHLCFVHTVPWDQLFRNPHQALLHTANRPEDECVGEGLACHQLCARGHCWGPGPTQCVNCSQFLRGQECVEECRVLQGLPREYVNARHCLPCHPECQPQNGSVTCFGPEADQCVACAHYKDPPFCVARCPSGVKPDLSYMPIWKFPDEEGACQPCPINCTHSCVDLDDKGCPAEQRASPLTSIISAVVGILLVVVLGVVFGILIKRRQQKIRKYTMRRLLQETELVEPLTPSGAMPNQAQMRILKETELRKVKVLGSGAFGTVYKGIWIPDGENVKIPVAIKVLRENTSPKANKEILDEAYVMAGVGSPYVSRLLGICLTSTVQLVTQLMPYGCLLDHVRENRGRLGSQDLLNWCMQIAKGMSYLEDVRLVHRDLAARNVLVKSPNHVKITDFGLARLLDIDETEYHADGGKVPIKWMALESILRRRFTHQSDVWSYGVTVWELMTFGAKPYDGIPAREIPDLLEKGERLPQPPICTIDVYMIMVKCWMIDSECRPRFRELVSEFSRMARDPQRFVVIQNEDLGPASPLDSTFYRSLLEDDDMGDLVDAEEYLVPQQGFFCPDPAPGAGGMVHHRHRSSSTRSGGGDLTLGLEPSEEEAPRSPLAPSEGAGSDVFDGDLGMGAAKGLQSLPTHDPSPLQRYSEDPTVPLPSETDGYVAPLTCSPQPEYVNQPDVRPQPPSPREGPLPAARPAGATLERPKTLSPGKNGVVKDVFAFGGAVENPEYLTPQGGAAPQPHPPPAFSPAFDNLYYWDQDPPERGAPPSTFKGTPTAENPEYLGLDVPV

Turning to `Cc1cc(N2CCN(C(=O)CN3CCOCC3)CC2)n2ncnc2n1` [Compound 7e, 1-(4-(5-Methyl-[1,2,4]triazolo[1,5-a]pyrimidin-7-yl)piperazin-1-yl)-2-morpholinoethanone], the IC50 in [1] amounted to 88.4 ± 4.5 µM; in data set [2] it was 78.5 ± 4.2 µM; with MCF-7 (breast cancer) it was 84.7 ± 4.1 µM; in data set [3], 26.3 ± 1.9 µM.

For `Cc1cc(Sc2nnc(NC(=O)Nc3ccccc3)s2)n2ncnc2n1` [Compound 9a, 1-(5-((5-Methyl-[1,2,4]triazolo[1,5-a]pyrimidin-7-yl)thio)-1,3,4-thiadiazol-2-yl)-3-phenylurea], the IC50 amounted to 44.4 ± 2.6 µM in data set [1], 25.2 ± 2 µM in data set [2], 37.2 ± 2.3 µM in the data set on MCF-7 (breast cancer) and 48.4 ± 2.6 µM in data set [3].

For `Cc1cc(Sc2nnc(NC(=O)Nc3ccc(Cl)cc3)s2)n2ncnc2n1` [Compound 9b, 1-(4-Chlorophenyl)-3-(5-((5-methyl-[1,2,4]triazolo[1,5-a]pyrimidin-7-yl)thio)-1,3,4-thiadiazol-2-yl)urea], the 50% inhibitory concentration (IC50) was more than 100 µM in data set [1], 87.7 ± 4.4 µM in data set [2], more than 100 µM with MCF-7 (breast cancer) and 64.7 ± 3.5 µM in data set [3].

Regarding `Cc1ccc(NC(=O)Nc2nnc(Sc3cc(C)nc4ncnn34)s2)cc1` [Compound 9c, 1-(5-((5-Methyl-[1,2,4]triazolo[1,5-a]pyrimidin-7-yl)thio)-1,3,4-thiadiazol-2-yl)-3-(p-tolyl)urea], the IC50 in data set [1] was 58.5 ± 3.3 µM; in [2], 51.9 ± 2.8 µM; in the data set with MCF-7 (breast cancer) it was 46.1 ± 2.5 µM; in data set [3], 18.1 ± 1.3 µM.

Regarding `COc1ccc(NC(=O)Nc2nnc(Sc3cc(C)nc4ncnn34)s2)cc1` [Compound 9d, 1-(4-Methoxyphenyl)-3-(5-((5-methyl-[1,2,4]triazolo[1,5-a]pyrimidin-7-yl)thio)-1,3,4-thiadiazol-2-yl)urea], the IC50 was more than 100 µM in data set [1], 82.4 ± 4.1 µM in [2], 92.4 ± 4.4 µM in the data set on MCF-7 (breast cancer) and more than 100 µM in data set [3].

As to `Cc1cc(Sc2nc(-c3ccc(Br)cc3)c(C#N)c(=O)[nH]2)n2ncnc2n1` [Compound 11a, 4-(4-Bromophenyl)-2-((5-methyl-[1,2,4]triazolo[1,5-a]pyrimidin-7-yl)thio)-6-oxo-1,6-dihydropyrimidine-5-carbonitrile], the IC50 in [1] is 41 ± 2.4 µM; in data set [2], 33.4 ± 2.3 µM; in the data set with MCF-7 (breast cancer) it was 30.5 ± 2.1 µM; in [3] it was 75.9 ± 4.1 µM.

`Cc1cc(Sc2nc(-c3ccc(Cl)cc3)c(C#N)c(=O)[nH]2)n2ncnc2n1` [Compound 11b, 4-(4-Chlorophenyl)-2-((5-methyl-[1,2,4]triazolo[1,5-a]pyrimidin-7-yl)thio)-6-oxo-1,6-dihydropyrimidine-5-carbonitrile]: the IC50 in data set [1] stood at 12.6 ± 1 µM; in [2] it was 17.5 ± 1.4 µM; in the data set on MCF-7 (breast cancer), 8.39 ± 0.6 µM; in data set [3], 56.2 ± 3 µM.

For the compound `Cc1ccc(-c2nc(Sc3cc(C)nc4ncnn34)[nH]c(=O)c2C#N)cc1` [Compound 11c, 2-((5-Methyl-[1,2,4]triazolo[1,5-a]pyrimidin-7-yl)thio)-6-oxo-4-(p-tolyl)-1,6-dihydropyrimidine-5-carbonitrile], the IC50 in data set [1] stood at 21.5 ± 1.5 µM; in data set [2], 19.2 ± 1.6 µM; with MCF-7 (breast cancer), 9.15 ± 0.7 µM; in data set [3] it was 45 ± 2.4 µM.

For the compound `COc1ccc(-c2nc(Sc3cc(C)nc4ncnn34)[nH]c(=O)c2C#N)cc1` [Compound 11d, 4-(4-Methoxyphenyl)-2-((5-methyl-[1,2,4]triazolo[1,5-a]pyrimidin-7-yl)thio)-6-oxo-1,6-dihydropyrimidine-5-carbonitrile], the IC50 in data set [1] turned out to be 47.9 ± 2.7 µM; in data set [2], 63.4 ± 3.6 µM; in the data set with MCF-7 (breast cancer) it was 34.6 ± 2.3 µM; in data set [3], 71.2 ± 3.9 µM.

With `COc1ccc(-c2nc(Sc3cc(C)nc4ncnn34)[nH]c(=O)c2C#N)cc1OC` [Compound 11e, 4-(3,4-Dimethoxyphenyl)-2-((5-methyl-[1,2,4]triazolo[1,5-a]pyrimidin-7-yl)thio)-6-oxo-1,6-dihydropyrimidine-5-carbonitrile], the IC50 in [1] turned out to be 8.89 ± 0.8 µM; in data set [2], 13.6 ± 1.1 µM; in the data set on MCF-7 (breast cancer), 5.92 ± 0.3 µM; in [3], 60.3 ± 3.3 µM; at EGFR, 0.246 µM; against TOP-II, 36.7 µM. Besides, the IC50 against aromatase (ARO) was 0.38 µM; on HER-2 it was 0.116 µM.

With `Cc1cc(Sc2nc(-c3cccc(Br)c3)c(C#N)c(=O)[nH]2)n2ncnc2n1` [Compound 11f, 4-(3-Bromophenyl)-2-((5-methyl-[1,2,4]triazolo[1,5-a]pyrimidin-7-yl)thio)-6-oxo-1,6-dihydropyrimidine-5-carbonitrile], the IC50 in data set [1] came to 31.2 ± 2.2 µM; in [2], 35.9 ± 2.2 µM; in the data set with MCF-7 (breast cancer), 22.2 ± 1.6 µM; in data set [3], 77.3 ± 4.3 µM.

Take `Cc1cc(Sc2nnc(-c3ccccc3)o2)n2ncnc2n1` [Compound 13a, 2-((5-Methyl-[1,2,4]triazolo[1,5-a]pyrimidin-7-yl)thio)-5-phenyl-1,3,4-oxadiazole]: the IC50 in data set [1] stood at 15 ± 1.2 µM; in data set [2], 23.6 ± 1.9 µM; with MCF-7 (breast cancer) it was 18.6 ± 1.3 µM; in [3] it was 91.4 ± 4.9 µM.

On to `Cc1ccc(-c2nnc(Sc3cc(C)nc4ncnn34)o2)cc1` [Compound 13b, 2-((5-Methyl-[1,2,4]triazolo[1,5-a]pyrimidin-7-yl)thio)-5-(p-tolyl)-1,3,4-oxadiazole], for which the IC50 worked out at 29.3 ± 2 µM in [1], 39 ± 2.4 µM in data set [2], 27.8 ± 2 µM in the data set on MCF-7 (breast cancer) and 83.5 ± 4.5 µM in [3].

On to `Cc1cc(Sc2nnc(-c3ccc([N+](=O)[O-])cc3)o2)n2ncnc2n1` [Compound 13c, 2-((5-Methyl-[1,2,4]triazolo[1,5-a]pyrimidin-7-yl)thio)-5-(4-nitrophenyl)-1,3,4-oxadiazole], for which the IC50 is 6.1 ± 0.5 µM in data set [1]; 10.3 ± 0.9 µM in data set [2]; 2.42 ± 0.1 µM with MCF-7 (breast cancer); 38.6 ± 2.2 µM in data set [3]; 0.087 µM on EGFR; 31.6 µM against TOP-II. For the same compound, the IC50 at aromatase (ARO) is 0.156 µM; on HER-2, 0.078 µM. Besides, the “Cell cycle distribution G2-M” value in the data set on MCF-7 cells (DMSO control 18.18) is listed as 10.32%. Moreover, in the data set on MCF-7 cells (DMSO control 24.83), the “Cell cycle distribution S” value stood at 37.01%. In addition, the “Cell cycle distribution G0-G1” value in the data set on MCF-7 cells (DMSO control 56.99) amounted to 52.67%. The “Reduction in final tumor volume compared to untreated DMBA group” value in data set [4] is listed as 62.5%. The Final tumor volume entry in data set [4] is given as “about 0.9 mm^3”. Also, the “Body weight at day 20” value in data set [5] is given as 30.6 g. The “Body weight at start” value in data set [5] was determined as 20.2 g. Moreover, the caspase-3 positive cells in the data set with caspase-3 is given as 2.3 ± 0.3 cells. Also, the “Increase of caspase-3 positive cells from the DMBA group” value in the data set on caspase-3 (mouse, in vivo) came to 360%. For the same compound, in the data set with caspase-3 (mouse, in vivo), the “Share of the control's apoptotic activity (caspase-3)” value is on record as “about 51%”.

As for `Cc1cc(Sc2nnc(-c3ccc(Cl)cc3)o2)n2ncnc2n1` [Compound 13d, 2-(4-Chlorophenyl)-5-((5-methyl-[1,2,4]triazolo[1,5-a]pyrimidin-7-yl)thio)-1,3,4-oxadiazole], the IC50 turned out to be 24.8 ± 1.8 µM in data set [1], 42.9 ± 2.5 µM in data set [2], 14.2 ± 1.1 µM in the data set on MCF-7 (breast cancer) and 66.1 ± 3.8 µM in data set [3].

With `Cc1cc(Sc2nnc(-c3ccc(Br)cc3)o2)n2ncnc2n1` [Compound 13e, 2-(4-Bromophenyl)-5-((5-methyl-[1,2,4]triazolo[1,5-a]pyrimidin-7-yl)thio)-1,3,4-oxadiazole], the IC50 in data set [1] was 55.1 ± 3.5 µM; in [2], 57.4 ± 3.2 µM; with MCF-7 (breast cancer) it was 42.6 ± 2.4 µM; in data set [3], more than 100 µM.

For the compound `COc1cccc2c1C(=O)c1c(O)c3c(c(O)c1C2=O)C[C@@](O)(C(=O)CO)C[C@@H]3O[C@H]1C[C@H](N)[C@H](O)[C@H](C)O1` [DOX, Doxorubicin, reference compound], at TOP-II, the IC50 was determined as 34 µM. Moreover, in data set [4], the “Reduction in final tumor volume compared to untreated DMBA group” value is on record as 75% and the Final tumor volume entry is “approximately 0.6 mm^3”. For the same compound, in data set [5], the “Body weight at day 20” value turned out to be 31.8 g and the “Body weight at start” value was found to be 19.8 g. The compound further registered a caspase-3 positive cells in the data set with caspase-3 of 4.0 ± 0.2 cells. In addition, in the data set on caspase-3 (mouse, in vivo), the “Decrease of caspase-3 positive cells from the control” value is reported as 11% and the “Increase of caspase-3 positive cells from the DMBA group” value was 700%.
